Results published in paper PMC3847553, “Kinetic properties of “dual” orexin receptor antagonists at OX1R and OX2R orexin receptors” (Frontiers in Neuroscience, 2013).
pKi: −log10 of the molar value. Read-outs that look alike come from different tables or passages of the source.

What was measured:
sleep wake cycle = system: sleep wake cycle; design: method as in Mang et al., 2012; conditions: ref Mang et al., 2012, cited from earlier work
mouse OX1R = target: T1, mouse OX1R (Mus musculus, UniProt P58307); experiment: FLIPR orexin A-stimulated calcium accumulation, mouse OX1R; type: cell-based; conditions: HEK cells; for Ki: read-out: pKi (converted)
T1 construct: expressed in transfected cells; host or cells: HEK; cells from GNF, San Diego
T1 sequence (P58307 1-416): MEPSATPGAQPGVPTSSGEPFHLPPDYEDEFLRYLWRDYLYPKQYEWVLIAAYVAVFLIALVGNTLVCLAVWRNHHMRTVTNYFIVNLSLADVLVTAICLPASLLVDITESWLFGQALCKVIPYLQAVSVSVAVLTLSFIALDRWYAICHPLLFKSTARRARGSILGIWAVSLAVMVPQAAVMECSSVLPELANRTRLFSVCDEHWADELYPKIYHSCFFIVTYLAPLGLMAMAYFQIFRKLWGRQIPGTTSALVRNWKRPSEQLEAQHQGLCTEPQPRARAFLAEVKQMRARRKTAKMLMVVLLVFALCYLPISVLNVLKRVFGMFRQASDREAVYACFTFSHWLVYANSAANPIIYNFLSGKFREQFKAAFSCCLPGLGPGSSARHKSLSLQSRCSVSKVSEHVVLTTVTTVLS
Procedure: (§1) Chinese Hamster Ovary (CHO) cells stably transfected with the cDNA encoding the human OX1R (CHO-hOX1) or OX2R (CHO-hOX2) were used (kindly provided by T. Cremer and Dr. S. Geisse, NIBR Basel, Switzerland). For measurements of calcium accumulation using FLIPR® (Fluorescent Imaging Plate Reader) assay, CHO or Human Embryonic Kidney (HEK) cells stably expressing mouse, rat or human OX1R or OX2R (kindly provided by Dr. A. Chen, GNF, San Diego, CA, USA) were used. All cells were cultured in 1:1 Dulbecco's Modified Eagle's Medium (DMEM)/Ham's F12 Nutrients Mixture (F12) supplemented with 10% (v/v) fetal bovine serum (FBS), 100 μ/ml (100 g/ml)/streptomycin (100 μg/ml), Fungizone (250 μg/ml), and Geneticin (G418, 50 mg/ml). Cells were maintained in a humidified incubator at 37°C in 5% CO2. For crude cell membrane preparations, cells were washed and harvested in 10 mM HEPES (pH 7.5), and centrifuged at 4°C for 5 min at 2500 g. The cell pellet was either stored at −80°C or used directly.
(§2) Cells expressing either human, rat or mouse OX1R or OX2R were seeded at 8,000 cells/well in black 384 well clear bottom plates and incubated overnight at 37°C. The following day, medium was discarded and cells loaded with 50 μ l of 1 mM Fluo-4 AM (Invitrogen F14202) in dimethyl sulfoxide in working buffer (Hanks' balanced salt solution, 10 mM HEPES) and incubated for 60 min at 37°C. The loading buffer was removed and cells were washed with 100 μ l working buffer containing […], 0.1% BSA, and 2.5 mM Probenecid (pH 7.4) to remove the excess Fluo-4 AM. […] The assay plate was then transferred to the Molecular Devices-FLIPR384. The baseline calcium signal was recorded for 10 s, then the antagonist of interest was injected (10 μl at 3 times the final concentration) and the calcium signal recorded every second for 1 min, then every 2 s 40 times. Plates were then incubated at room temperature for 30 min, 1, 2, or 4 h.

rat OX2R = target: T2, rat OX2R (Rattus norvegicus, UniProt P56719); experiment: FLIPR orexin A-stimulated calcium accumulation, rat OX2R; type: cell-based; conditions: HEK cells; for Ki: read-out: pKi (converted)
T2 sequence (P56719 1-460): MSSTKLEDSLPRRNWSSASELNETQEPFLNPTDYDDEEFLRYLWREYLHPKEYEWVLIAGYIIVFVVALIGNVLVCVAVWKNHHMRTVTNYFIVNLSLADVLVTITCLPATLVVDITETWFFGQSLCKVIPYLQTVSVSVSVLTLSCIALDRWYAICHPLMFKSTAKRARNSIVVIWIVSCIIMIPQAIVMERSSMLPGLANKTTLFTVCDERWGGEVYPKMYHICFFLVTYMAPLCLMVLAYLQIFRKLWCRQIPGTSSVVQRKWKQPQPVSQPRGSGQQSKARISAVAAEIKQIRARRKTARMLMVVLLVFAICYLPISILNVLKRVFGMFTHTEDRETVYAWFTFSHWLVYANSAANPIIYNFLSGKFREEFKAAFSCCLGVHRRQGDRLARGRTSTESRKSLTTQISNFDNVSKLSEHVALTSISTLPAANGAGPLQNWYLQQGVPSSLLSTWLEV
From the text: as §1, with “All cells were cultured in 1:1 Dulbecco's Modified Eagle's Medium (DMEM)/Ham's F12 Nutrients Mixture (F12) supplemented with 10% (v/v) fetal bovine serum (FBS), 100 μ/ml (100 g/ml)/streptomycin (100 μg/ml), Fungizone (250 μg/ml), and Geneticin (G418, 50 mg/ml).” left out
as §2, with “times.” for “times. Plates were then incubated at room temperature for 30 min, 1, 2, or 4 h.”

Structure (SMILES) | effect on sleep (sleep wake cycle; OX1R KO mice) | effect on the sleep wake cycle (sleep wake cycle; OX2R KO mice) | effect on the sleep wake cycle (sleep wake cycle; double receptor KO mice) | pKi (mouse OX1R; antagonist incubation 30 min) | pKi (mouse OX1R; antagonist incubation 1 h) | pKi (mouse OX1R; antagonist incubation 2 h) | pKi (mouse OX1R; antagonist incubation 4 h) | Ki (rat OX2R; antagonist incubation 30 min) | Ki (rat OX2R; antagonist incubation 1 h) | Ki (rat OX2R; antagonist incubation 2 h) | Ki (rat OX2R; antagonist incubation 4 h) | Ki (mouse OX1R; antagonist incubation 30 min) | Ki (mouse OX1R; antagonist incubation 1 h) | Ki (mouse OX1R; antagonist incubation 2 h) | Ki (mouse OX1R; antagonist incubation 4 h) | pKi (rat OX2R; antagonist incubation 30 min) | pKi (rat OX2R; antagonist incubation 1 h) | pKi (rat OX2R; antagonist incubation 2 h) | pKi (rat OX2R; antagonist incubation 4 h)
CNC(=O)[C@@H](c1ccccc1)N1CCc2cc(OC)c(OC)cc2[C@@H]1CCc1ccc(C(F)(F)F)cc1 [Almorexant] | effective | no effect on the sleep wake cycle | no effect on the sleep wake cycle | 7.73 | 7.63 | 7.47 | 7.41 | 5.62 nM | 2.24 nM | 1.02 nM | 0.661 nM | – | – | – | – | – | – | – | –
Cc1ccc(-c2ncccn2)c(C(=O)N2C[C@H](COc3ccc(F)cn3)CC[C@H]2C)c1 [Filorexant] | – | – | – | – | – | – | – | 0.741 nM | 0.417 nM | 0.251 nM | 0.178 nM | 5.25 nM | 4.07 nM | 6.61 nM | 5.89 nM | – | – | – | –
COc1ccnc(N2CCC3(CCCN(Cc4c[nH]c5ccccc45)C3=O)CC2)n1 [IPSU, 2-((1H-Indol-3-yl)methyl)-9-(4-methoxypyrimidin-2-yl)-2,9-diazaspiro[5.5]undecan-1-one] | – | – | – | – | – | – | – | 23.4 nM | 28.2 nM | 24 nM | 28.2 nM | 331 nM | 490 nM | 288 nM | 324 nM | – | – | – | –
Cc1nc(C(=O)N2CCCC[C@H]2CNC(=O)c2cccc3occc23)c(-c2ccc(F)cc2)s1 [SB-649868] | – | – | – | – | – | – | – | 0.457 nM | 0.316 nM | 0.155 nM | 0.141 nM | 0.158 nM | 0.427 nM | 0.0407 nM | 0.0468 nM | – | – | – | –
Cc1ccc(-n2nccn2)c(C(=O)N2CCN(c3nc4cc(Cl)ccc4o3)CC[C@H]2C)c1 [Suvorexant] | – | – | – | 8.90 | 8.98 | 9.03 | 8.99 | – | – | – | – | – | – | – | – | 8.71 | 9.06 | 9.22 | 9.37
